This is an account of results in US12545685B2 (Daiichi Sankyo Company, Limited, priority 2011, dated 2026).

The conditions of series [1]: human, microsomes, 0.5 h.
Description: 100 μl of 100 mM phosphate buffer solution (pH 7.4) containing 3 μM test compound was added to 100 μl of reaction solution containing 100 mM phosphate buffer solution (pH 7.4), 30 mM glucose 6-phosphate, 10 mM MgCl2·6H2O, 3 units/ml glucose 6-phosphate 1-dehydrogenase, and 0.3 to 1.5 mg/ml human liver microsomes and the mixture was incubated at 37° C. for 20 minutes. Then 70 μl of 100 mM phosphate buffer solution (pH 7.4) containing 3 mM NADP+ was added and the mixture was further incubated at 37° C. for 30 minutes to conduct a microsomal metabolism test. The compound was quantified by the internal standard method using a quadrupole mass spectrometer connected to a high performance liquid chromatography apparatus. The metabolic stability (residual percentage of compound: MS %) was determined according to the following formula;
(peak area ratio: peak area of test compound divided by that of internal standard substance)
Series [2] deals with T1, Mdm2/p53 binding (GST-Mdm2 / His-p53) (Homo sapiens, UniProt Q00987, L33E).
T1 construct: Mdm2 partial protein having Mdm2 amino acids at positions 25 to 108
As to the kind of experiment: Mdm2/p53 binding assay (HTRF, His-p53 and GST-Mdm2). The conditions noted are these: His-p53 (aa 1-132) and GST-Mdm2 (aa 25-108, L33E) 6.25 nM each; 25°C, 1 hour; values given as ranges. In short, it runs like this: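 His-p53 (aa 1–132) and GST-Mdm2 (aa 25–108, L33E) were prepared at 6.25 nM each in the protein dilution (20 mM HEPES pH 7.4, 150 mM NaCl, 0.1% BSA). Compound in 10% DMSO buffer and XL665 anti-His/Eu anti-GST antibodies (KF buffer) were added, with 1 h at 25 °C. The 665/620 nm TR-FRET ratio gave T/C and a sigmoid-fitted IC50.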

Series [3] relates to human lung cancer-derived cell line NCI-H460 having wild-type p53. As to the kind of experiment: Cell growth inhibition assay (MTT). In kind it is cell-based. The note with it: 72 h, NCI-H460 cells, 3 days culture, values given as ranges, read-out: 50% growth inhibition concentration (GI50 value). In short, it runs like this: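 NCI-H460 cells (wild-type p53) seeded at 500 cells/well in RPMI1640 with 10% FBS, then treated the next day and grown 3 days at 37 °C. MTT read-out at OD 540 nm (660 nm reference), taken at dosing and at day 3. GI50 derived from T/C (%) dose-response curves.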

T1 sequence (Q00987 25-108 L33E): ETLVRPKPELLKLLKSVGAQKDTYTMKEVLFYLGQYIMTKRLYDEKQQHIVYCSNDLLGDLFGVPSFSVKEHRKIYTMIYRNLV

`CC1(C)CCC2(CC1)N[C@@H](C(=O)N[C@H]1CC[C@H](c3nnco3)CC1)[C@H](c1cccc(Cl)c1F)[C@]21C(=O)Nc2cc(Cl)ncc21` (relative stereo) [Example 108, (3′R, 4′S, S′R)-6″-chloro-4′-(3-chloro-2-fluorophenyl)-4,4-dimethyl-N-[trans-4-(1,3,4-oxadiazol-2-yl)cyclohexyl]-2″-oxo-1″,2″-dihydrodispiro[cyclohexane-1,2′-pyrrolidine-3′,3″-pyrrolo[3,2-c]pyridine]-5′-carboxamide]: the “metabolic stability (residual percentage of compound: MS %)” value in series [1] is listed as 70-100%. Consider `CN(C)C(=O)[C@H]1CC[C@H](NC(=O)[C@@H]2NC3(CCC(C)(C)CC3)[C@@]3(C(=O)Nc4cc(Cl)ccc43)[C@H]2c2ccnc(Cl)c2F)CC1` [Example 113, (3′R, 4′S,5′R)-6″-chloro-4′-(2-chloro-3-fluoropyridin-4-yl)-N-[trans-4-(dimethylcarbamoyl)cyclohexyl]-4,4-dimethyl-2″-oxo-1″,2″-dihydrodispiro[cyclohexane-1,2′-pyrrolidine-3′,3″-indole]-5′-carboxamide], for which the IC50 – broadly, the midpoint of a concentration-inhibition curve – in series [2] was in the range of 1 to 50 nM. Besides, the GI50 in series [3] is less than 100 nM. With `CC1(C)CCC2(CC1)N[C@@H](C(=O)N[C@@H]1CC[C@@H](c3n[nH]c(=O)o3)OC1)[C@H](c1ccnc(Cl)c1F)[C@]21C(=O)Nc2cc(Cl)ccc21` [Example 57, (3′R, 4′S,5′R)-6″-chloro-4′-(2-chloro-3-fluoropyridin-4-yl)-4,4-dimethyl-2″-oxo-N-[(3R,6S)-6-(5-oxo-4,5-dihydro-1,3,4-oxadiazol-2-yl)tetrahydro-2H-pyran-3-yl]-1″,2″-dihydrodispiro[cyclohexane-1,2′-pyrrolidine-3′,3″-indole]-5′-carboxamide], in series [2], the IC50 is 1 to 50 nM. In addition, the GI50 in series [3] is 100 to 500 nM. In the same order, the values of `CC1(C)CCC2(CC1)N[C@@H](C(=O)N[C@H]1CC[C@H](O)CC1)[C@H](c1ccnc(Cl)c1F)[C@]21C(=O)Nc2cc(Cl)ccc21` (relative stereo) [Example 16, (3′R, 4′S,5′R)-6″-chloro-4′-(2-chloro-3-fluoropyridin-4-yl)-N-(trans-4-hydroxycyclohexyl)-4,4-dimethyl-2″-oxo-1″,2″-dihydrodispiro[cyclohexane-1,2′-pyrrolidine-3′,3″-indole]-5′-carboxamide] are 1 to 50 nM and 100 to 500 nM. For `CC1(C)CCC2(CC1)N[C@@H](C(=O)N[C@@H]1CC[C@@H](C(=O)NC3CCOCC3)OC1)[C@H](c1ccnc(Cl)c1F)[C@]21C(=O)Nc2cc(Cl)ccc21` [Example 109, (3′R, 4′S,5′R)-6″-chloro-4′-(2-chloro-3-fluoropyridin-4-yl)-4,4-dimethyl-2″-Oxo-N-[(3R,6S)-6-(tetrahydro-2H-pyran-4-ylcarbamoyl)tetrahydro-2H-pyran-3-yl]-1″,2″-dihydrodispiro[cyclohexane-1,2′-pyrrolidine-3′,3″-indole]-5′-carboxamide], the IC50 in series [2] fell in the range of 1 to 50 nM. In series [3], the GI50 lay in the range of 100 to 500 nM. `CC1(C)CCC2(CC1)N[C@@H](C(=O)N[C@@H]1CC[C@@H](C(C)(C)O)OC1)[C@H](c1ccnc(Cl)c1F)[C@]21C(=O)Nc2nc(Cl)ccc21` [Example 47, (3′R, 4′S,5′R)-6″-chloro-4′-(2-chloro-3-fluoropyridin-4-yl)-N-[(3R,6S)-6-(1-hydroxy-1-methylethyl)tetrahydro-2H-pyran-3-yl]-4,4-dimethyl-2″-oxo-1″,2″-dihydrodispiro[cyclohexane-1,2′-pyrrolidine-3′,3″-pyrrolo[2,3-b]pyridine]-5′-carboxamide] gave an IC50 in series [2] of 50 to 100 nM. Also, the GI50 in series [3] was 500 to 1000 nM. For `CCN(CC)C(=O)[C@@H]1CC[C@@H](NC(=O)[C@@H]2NC3(CCC(C)(C)CC3)[C@@]3(C(=O)Nc4nc(Cl)ccc43)[C@H]2c2ccnc(Cl)c2F)CO1` [Example 117, (3′R, 4′S,5′R)-6″-chloro-4′-(2-chloro-3-fluoropyridin-4-yl)-N-[(3R,6S)-6-(diethylcarbamoyl)tetrahydro-2H-pyran-3-yl]-4,4-dimethyl-2″-oxo-1″,2″-dihydrodispiro[cyclohexane-1,2′-pyrrolidine-3′,3″-pyrrolo[2,3-b]pyridine]-5′-carboxamide], in series [2], the 50% inhibitory concentration (IC50) was 1 to 50 nM. In addition, in series [3], the GI50 is 100 to 500 nM. The corresponding values for `CC1(C)CCC2(CC1)N[C@@H](C(=O)N[C@@H]1CC[C@@H](CO)OC1)[C@H](c1ccnc(Cl)c1)[C@]21C(=O)Nc2cc(Cl)ccc21` [Example 13, (3′R, 4′R, 5′R)-6″-chloro-4′-(2-chloropyridin-4-yl)-N-[(3R,6S)-6-(hydroxymethyl)tetrahydro-2H-pyran-3-yl]-4,4-dimethyl-2″-oxo-1″,2″-dihydrodispiro[cyclohexane-1,2′-pyrrolidine-3′,3″-indole]-5′-carboxamide] are 1 to 50 nM and 100 to 500 nM. The corresponding values for `CC1(C)CCC2(CC1)N[C@@H](C(=O)N[C@H]1CC[C@H](C(N)=O)CC1)[C@H](c1ccnc(Cl)c1F)[C@]21C(=O)Nc2cc(Cl)ccc21` [Example 67, (3′R, 4′S,5′R)—N-(trans-4-carbamoylcyclohexyl)-6″-chloro-4′-(2-chloro-3-fluoropyridin-4-yl)-4,4-dimethyl-2′-oxo-1″,2″-dihydrodispiro[cyclohexane-1,2′-pyrrolidine-3′,3″-indole]-5′-carboxamide] are 1 to 50 nM and 100 to 500 nM. `CC1(C)CCC2(CC1)N[C@@H](C(=O)N[C@@H]1CC[C@@H](CO)OC1)[C@H](c1cccc(Cl)c1F)[C@]21C(=O)Nc2cc(Cl)ccc21` [Example 8, (3′R, 4′S,5′R)-6″-chloro-4′-(3-chloro-2-fluorophenyl)-N-[(3R,6S)-6-(hydroxymethyl)tetrahydro-2H-pyran-3-yl]-4,4-dimethyl-2″-oxo-1″,2″-dihydrodispiro[cyclohexane-1,2′-pyrrolidine-3′,3″-indole]-5′-carboxamide]: in series [2], the IC50 is 1 to 50 nM. In addition, the GI50 in series [3] lay in the range of 100 to 500 nM. As to `CC1(C)CCC2(CC1)N[C@@H](C(=O)N[C@@H]1CC[C@@H](CO)OC1)[C@H](c1cc(Cl)cc(CO)c1)[C@]21C(=O)Nc2cc(Cl)ccc21` [Example 28, (3′R, 4′R, 5′R)-6″-chloro-4′-[3-chloro-5-(hydroxymethyl)phenyl]-N-[(3R,6S)-6-(hydroxymethyl)tetrahydro-2H-pyran-3-yl]-4,4-dimethyl-2″-oxo-1″,2″-dihydrodispiro[cyclohexane-1,2′-pyrrolidine-3′,3″-indole]-5′-carboxamide], in series [2], the IC50 was in the range of 1 to 50 nM. The GI50 in series [3] was in the range of 1000 to 5000 nM. With `CC1(C)CCC2(CC1)N[C@@H](C(=O)N[C@H]1CC[C@H](O)CC1)[C@H](c1cccc(Cl)c1F)[C@]21C(=O)Nc2nc(Cl)ccc21` (relative stereo) [Example 6, (3′R, 4′S,5′R)-6″-chloro-4′-(3-chloro-2-fluorophenyl)-N-(trans-4-hydroxycyclohexyl)-4,4-dimethyl-2″-oxo-1″,2″-dihydrodispiro[cyclohexane-1,2′-pyrrolidine-3′,3″-pyrrolo[2,3-b]pyridine]-5′-carboxamide], the IC50 in series [2] fell in the range of 1 to 50 nM. Also, the GI50 in series [3] lay within 1000 to 5000 nM. In turn, `CC1(C)CCC2(CC1)N[C@@H](C(=O)N[C@@H]1CC[C@@H](CO)OC1)[C@H](c1ccnc(Cl)c1F)[C@]21C(=O)Nc2nc(Cl)ccc21` [Example 25, (3′R, 4′S,5′R)-6″-chloro-4′-(2-chloro-3-fluoropyridin-4-yl)-N-[(3R,6S)-6-(hydroxymethyl)tetrahydro-2H-pyran-3-yl]-4,4-dimethyl-2″-oxo-1″,2″-dihydrodispiro[cyclohexane-1,2′-pyrrolidine-3′,3″-pyrrolo[2,3-b]pyridine]-5′-carboxamide] registered an IC50 in series [2] of 1 to 50 nM. Moreover, in series [3], the GI50 lay in the range of 500 to 1000 nM. Compound `CC1(C)CCC2(CC1)N[C@@H](C(=O)N[C@@H]1CC[C@@H](C(N)=O)OC1)[C@H](c1cccc(Cl)c1F)[C@]21C(=O)Nc2nc(Cl)ccc21` [Example 179, (3′R, 4′S,5′R)—N-[(3R,6S)-6-carbamoyltetrahydro-2H-pyran-3-yl]-6″-chloro-4′-(3-chloro-2-fluorophenyl)-4,4-dimethyl-2″-oxo-1″,2″-dihydrodispiro[cyclohexane-1,2′-pyrrolidine-3′,3″-pyrrolo[2,3-b]pyridine]-5′-carboxamide] returned an IC50 in series [2] of 1 to 50 nM. Also, the GI50 in series [3] was 1000 to 5000 nM. In the same order, the values of `CC1(C)CCC2(CC1)N[C@@H](C(=O)N[C@H]1CC[C@H](NC(=O)CO)CC1)[C@H](c1cccc(Cl)c1F)[C@]21C(=O)Nc2cc(Cl)ccc21` (relative stereo) [Example 24, (3′R, 4′S,5′R)-6″-chloro-4′-(3-chloro-2-fluorophenyl)-N-{trans-4-[(hydroxyacetyl)amino]cyclohexyl}-4,4-dimethyl-2″-oxo-1″,2″-dihydrodispiro[cyclohexane-1,2′-pyrrolidine-3′,3″-indole]-5′-carboxamide] are 50 to 100 nM and 100 to 500 nM. The corresponding values for `CC1(C)CCC2(CC1)N[C@@H](C(=O)N[C@H]1CC[C@H](c3nnco3)CC1)[C@H](c1ccnc(Cl)c1F)[C@]21C(=O)Nc2cc(Cl)ccc21` (relative stereo) [Example 18, (3′R, 4′S,5′R)-6″-chloro-4′-(2-chloro-3-fluoropyridin-4-yl)-4,4-dimethyl-N-[trans-4-(1,3,4-oxadiazol-2-yl)cyclohexyl]-2″-oxo-1″,2″-dihydrodispiro[cyclohexane-1,2′-pyrrolidine-3′,3″-indole]-5′-carboxamide] are 50 to 100 nM and 100 to 500 nM.
